From BindingDB's records for patent US20240025899 (Shanghai De Novo Pharmatech, 2024)

Target: T1, Serine/threonine-protein kinase ATR [14-953] (Homo sapiens, UniProt Q13535)
T1 construct: 14-953
Test: ATR Enzyme Assay
Experimental: In this experiment, the phosphorylation level of substrate protein P53 (Eurofins, 14-952) was detected by HTRF technology to measure the activity of ATR/ATRIP (Eurofins, 14-953) kinase. Reaction buffer (25 mM HEPES pH 8.0, 0.01% Brij-35, 1% Glycerol, 5 mM DTT, 1 mg/mL BSA), termination buffer (12.5 mM HEPES pH 8.0, 0.005% Brij-35, 0.5% Glycerol, 250 mM EDTA) and assay buffer (50 mM HEPES pH 7.0, 150 mM NaCl, 267 mM KF, 0.1% sodium cholate, 0.01% Tween 20) were prepared in advance. ATR/ATRIP was diluted with reaction buffer to a working solution of 2 ng/μL, and the substrate protein P53 was diluted with reaction buffer to a working solution of 80 nM, and […] (Sigma, A2383) working solution (containing 40 mM MnCl2) was prepared with reaction buffer. The compound was 3-fold diluted with DMSO, then diluted with reaction buffer into a working solution, then added to a 384-well plate at 2.5 μL/well, and centrifuged at 1500 rpm for 40 s. Then 2.5 μL of ATR/ATRIP working solution, P53 working solution and ATP working solution were added into the 384-well plate, centrifuged at 1500 rpm for 40 s and reacted at room temperature for 30 minutes.

T1 sequence (Q13535 14-953): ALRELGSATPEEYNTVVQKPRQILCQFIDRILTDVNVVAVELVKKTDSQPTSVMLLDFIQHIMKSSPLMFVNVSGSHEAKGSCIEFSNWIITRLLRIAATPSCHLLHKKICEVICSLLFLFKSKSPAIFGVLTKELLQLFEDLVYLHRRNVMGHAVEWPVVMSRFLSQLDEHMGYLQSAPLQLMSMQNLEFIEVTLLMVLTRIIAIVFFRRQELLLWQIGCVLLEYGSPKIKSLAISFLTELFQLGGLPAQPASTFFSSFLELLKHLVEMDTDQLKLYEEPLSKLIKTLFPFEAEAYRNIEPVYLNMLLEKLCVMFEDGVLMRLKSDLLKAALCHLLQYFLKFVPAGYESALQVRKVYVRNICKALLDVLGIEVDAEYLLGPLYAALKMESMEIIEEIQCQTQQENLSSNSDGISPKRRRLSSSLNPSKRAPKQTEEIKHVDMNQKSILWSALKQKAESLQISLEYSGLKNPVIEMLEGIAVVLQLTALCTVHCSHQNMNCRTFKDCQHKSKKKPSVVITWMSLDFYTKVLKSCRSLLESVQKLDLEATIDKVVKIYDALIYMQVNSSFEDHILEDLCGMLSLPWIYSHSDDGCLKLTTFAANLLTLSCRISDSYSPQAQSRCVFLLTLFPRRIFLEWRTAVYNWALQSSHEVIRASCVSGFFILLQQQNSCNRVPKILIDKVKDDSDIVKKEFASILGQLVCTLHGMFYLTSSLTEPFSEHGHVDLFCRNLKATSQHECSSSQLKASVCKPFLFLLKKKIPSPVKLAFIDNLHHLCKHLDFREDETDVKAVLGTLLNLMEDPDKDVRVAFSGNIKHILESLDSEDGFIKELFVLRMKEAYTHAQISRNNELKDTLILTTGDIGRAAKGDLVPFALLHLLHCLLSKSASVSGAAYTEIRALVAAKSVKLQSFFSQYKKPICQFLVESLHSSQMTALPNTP

Structure (SMILES): C[C@@H]1COCCN1c1nc2c(cnn2-c2cc[nH]n2)c2c1CCN2S(N)(=O)=O [US20240025899, Compound 5]
- IC50: 6.5 nM

Structure (SMILES): C[C@@H]1COCCN1c1nc2c(cnn2-c2cc[nH]n2)c2c1CCN2C [US20240025899, Compound 12]
- IC50: 14 nM
